Assay results taken from patent US9469615B2, “Quinoxalines and AZA-quinoxalines as CRTH2 receptor modulators” (Merck Sharp & Dohme Corp., priority 2010, dated 2016).

Target: T1, hCRTH2 (Homo sapiens, UniProt Q9Y5Y4)
T1 construct: expressed in transfected cells; host or cells: HEK (human embryonic kidney) cells expressing hCRTH2; membrane preparation
T1 sequence (Q9Y5Y4 1-395): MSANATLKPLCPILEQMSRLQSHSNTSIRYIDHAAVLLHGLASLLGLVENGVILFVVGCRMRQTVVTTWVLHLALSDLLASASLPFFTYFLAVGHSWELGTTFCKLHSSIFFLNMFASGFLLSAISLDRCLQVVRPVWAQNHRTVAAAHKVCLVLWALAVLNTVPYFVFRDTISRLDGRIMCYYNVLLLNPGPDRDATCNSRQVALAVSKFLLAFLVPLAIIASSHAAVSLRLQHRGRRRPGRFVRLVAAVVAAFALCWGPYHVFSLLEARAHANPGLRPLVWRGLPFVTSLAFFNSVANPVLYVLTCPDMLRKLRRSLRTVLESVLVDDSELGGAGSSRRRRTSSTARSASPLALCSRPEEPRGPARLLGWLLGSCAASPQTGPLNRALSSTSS
Experiment: Radioligand binding assay ([3H]PGD2 competition, HEK-hCRTH2 membranes)
Conditions: [3H]PGD2 binding, rated A-E (Table A)
How it was run: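 Competition against 3.0 nM [3H]PGD2 was run for 60 min at room temperature in pH 7.4 Tris-HCl buffer with EDTA, 2 mM MnCl2 and 1% DMSO, using 8-20 μg HEK-hCRTH2 membrane protein. 10 μM PGD2 set non-specific binding; filter-bound counts were read by scintillation.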

Ki [nM] | SMILES
0.1 to 2 | O=C(O)CCCCc1nc2cc(C(=O)N[C@H]3CCc4ccccc43)ccc2nc1-c1ccc(Cl)cc1 [16AP, 3-(4-chlorophenyl)-7-[[(2,3-dihydro-1H-inden-1(S)-yl)amino]carbonyl]-2-quinoxalinepentanoic acid]
0.1 to 2 | Cc1ccc(CNC(=O)c2ccc3nc(-c4ccc(Cl)cc4)c(CCCCC(=O)O)nc3c2)cc1 [16AQ, 3-(4-chlorophenyl)-7-[[[(4-methylphenyl)methyl]amino]carbonyl]-2-quinoxalinepentanoic acid]
2.1 to 20 | O=C(O)CCCCc1nc2cc(C(=O)N[C@@H](CCO)c3ccccc3)ccc2nc1-c1ccc(Cl)cc1 [16AR, 3-(4-chlorophenyl)-7-[[(3-hydroxy-1(S)-phenylpropyl)amino]carbonyl]-2-quinoxalinepentanoic acid]
0.1 to 2 | O=C(O)CCCCc1nc2cc(C(=O)NC3Cc4ccccc4C3)ccc2nc1-c1ccc(Cl)cc1 [16AS, 3-(4-ch1orophenyl)-7-[[(2,3-dihydro-1H-inden-2-yl)amino]carbonyl]-2-quinoxalinepentanoic acid]
0.1 to 2 | O=C(O)CCCCc1nc2cc(C(=O)NC3CCCc4ccccc43)ccc2nc1-c1ccc(Cl)cc1 (stereo not shown) [16Ai, 3-(4-chlorophenyl)-7-[[(1,2,3,4-tetrahydro-1-naphthalenyl)amino]carbonyl]-2-quinoxalinepentanoic acid]
0.1 to 2 | O=C(O)CCCCc1nc2cc(C(=O)N[C@@H]3CCc4ccccc43)ccc2nc1-c1ccc(Cl)cc1 [16Ao, 3-(4-chlorophenyl)-7-[[(2,3-dihydro-1H-inden-1(R)-yl)amino]carbonyl]-2-quinoxalinepentanoic acid]
0.1 to 2 | O=C(O)CCCCc1nc2cc(C(=O)NCc3cccc(Cl)c3)ccc2nc1-c1ccc(Cl)cc1 [16F, 3-(4-chlorophenyl)-7-[[[(3-chlorophenyl)methyl]amino]carbonyl]-2-quinoxalinepentanoic acid]
0.1 to 2 | O=C(O)CCCCc1nc2cc(C(=O)NCc3ccccc3)ccc2nc1-c1ccc(Cl)cc1 [16G, 3-(4-chlorophenyl)-7-[[(phenylmethyl)amino]car-bonyl]-2-quinoxalinepentanoic acid]
0.1 to 2 | O=C(O)CCCCc1nc2cc(C(=O)N3CCC(c4ccccc4)C3)ccc2nc1-c1ccc(Cl)cc1 (stereo not shown) [16H, 3-(4-chlorophenyl)-7-[(3-phenyl-1-pyrrolidinyl)carbonyl]-2-quinoxalinepentanoic acid]
2.1 to 20 | O=C(O)CCCCc1nc2cc(C(=O)N3CCC(c4ccccc4)CC3)ccc2nc1-c1ccc(Cl)cc1 [16J, 3-(4-chlorophenyl)-7-[(4-phenyl-1-piperidinyl)carbonyl]-2-quinoxalinepentanoic acid]
0.1 to 2 | N#Cc1ccc(CNC(=O)c2ccc3nc(-c4ccc(Cl)cc4)c(CCCCC(=O)O)nc3c2)cc1 [16K, 3-(4-chlorophenyl)-7-[[[(4-cyanophenyl)methyl]amino]carbonyl]-2-quinoxalinepentanoic acid]
2.1 to 20 | O=C(O)CCCCc1nc2cc(C(=O)N3CC[C@H](c4ccccc4)C3)ccc2nc1-c1ccc(Cl)cc1 [16L, 3-(4-chlorophenyl)-7-[(3(R)-phenyl-1-pyrrolidinyl)carbonyl]-2-quinoxalinepentanoic acid]
0.1 to 2 | O=C(O)CCCCc1nc2cc(C(=O)N3CC[C@@H](c4ccccc4)C3)ccc2nc1-c1ccc(Cl)cc1 [16M, 3-(4-chlorophenyl)-7-[(3(S)-phenyl-1-pyrrolidinyl)carbonyl]-2-quinoxalinepentanoic acid]
0.1 to 2 | O=C(O)CCCCc1nc2cc(C(=O)N3CCC[C@H](c4ccccc4)C3)ccc2nc1-c1ccc(Cl)cc1 [16N, 3-(4-chlorophenyl)-7-[(3(R)-phenyl-1-piperidinyl)carbonyl]-2-quinoxalinepentanoic acid]
0.1 to 2 | O=C(O)CCCCc1nc2cc(C(=O)NCc3ccc(OC(F)(F)F)cc3)ccc2nc1-c1ccc(Cl)cc1 [16P, 3-(4-chlorophenyl)-7-[[[[4-(trifluoromethoxy)phenyl]methyl]amino]carbonyl]-2-quinoxalinepentanoic acid]
0.1 to 2 | O=C(O)CCCCc1nc2cc(C(=O)NCc3cc(Cl)cc(Cl)c3)ccc2nc1-c1ccc(Cl)cc1 [16Q, 3-(4-chlorophenyl)-7-[[[(3,5-dichlorophenyl)methyl]amino]carbonyl]-2-quinoxalinepentanoic acid]
0.1 to 2 | O=C(O)CCCCc1nc2cc(C(=O)NCc3ccc(F)cc3)ccc2nc1-c1ccc(Cl)cc1 [16R, 3-(4-chlorophenyl)-7-[[[(4-fluorophenyl)methyl]amino]carbonyl]-2-quinoxalinepentanoic acid]
0.1 to 2 | C[C@@H](NC(=O)c1ccc2nc(-c3ccc(Cl)cc3)c(CCCCC(=O)O)nc2c1)c1ccc(F)cc1 [16S, 3-(4-chlorophenyl)-7-[[[1(R)-(4-fluorophenyl)ethyl]amino]carbonyl]-2-quinoxalinepentanoic acid]
0.1 to 2 | C[C@H](NC(=O)c1ccc2nc(-c3ccc(Cl)cc3)c(CCCCC(=O)O)nc2c1)c1ccc(F)cc1 [16T, 3-(4-chlorophenyl)-7-[[[1(S)-(4-fluorophenyl)ethyl]amino]carbonyl]-2-quinoxalinepentanoic acid]
0.1 to 2 | O=C(O)CCCCc1nc2cc(C(=O)NCc3ccc(C(F)(F)F)cc3)ccc2nc1-c1ccc(Cl)cc1 [16U, 3-(4-chlorophenyl)-7-[[[[4-(trifluoromethyl)phenyl]methyl]amino]carbonyl]-2-quinoxalinepentanoic acid]
0.1 to 2 | O=C(O)CCCCc1nc2cc(C(=O)N[C@H](c3ccc(Cl)cc3)C(F)(F)F)ccc2nc1-c1ccc(Cl)cc1 [16V, 3-(4-chlorophenyl)-7-[[[1(R)-(4-chlorophenyl)-2,2,2-trifluoroethyl]amino]carbonyl]-2-quinoxalinepentanoic acid]
0.1 to 2 | O=C(O)CCCCc1nc2cc(C(=O)N[C@@H](c3ccc(Cl)cc3)C(F)(F)F)ccc2nc1-c1ccc(Cl)cc1 [16W]
0.1 to 2 | O=C(O)CCCCc1nc2cc(C(=O)N[C@@H](c3ccc(F)cc3)C(F)(F)F)ccc2nc1-c1ccc(Cl)cc1 [16Y, 3-(4-chlorophenyl)-7-[[[2,2,2-trifluoro-1(S)-(4-fluorophenyl)ethyl]amino]carbonyl]-2-quinoxalinepentanoic acid]
2.1 to 20 | C[C@H](NC(=O)c1ccc2nc(-c3ccc(Cl)cc3)c(CCCCC(=O)O)nc2c1)c1ccccn1 [16Z, 3-(4-chlorophenyl)-7-[[[1(S)-(2-pyridinyl)ethyl]amino]carbonyl]-2-quinoxalinepentanoic acid]
0.1 to 2 | O=C(O)CCCCc1nc2cc(C(=O)N[C@@H](c3ccccc3)C(F)(F)F)ccc2nc1-c1ccc(Cl)cc1 [16i, 3-(4-chlorophenyl)-7-[[(2,2,2-trifluoro-1(s)-phenylethyl)amino]carbonyl]-2-quinoxalinepentanoic acid]
0.1 to 2 | O=C(O)CCCCc1nc2cc(C(=O)N3CCC[C@@H](c4ccccc4)C3)ccc2nc1-c1ccc(Cl)cc1 [16o, 3-(4-chlorophenyl)-7-[(3(S)-phenyl-1-piperidinyl)carbonyl]-2-quinoxalinepentanoic acid]
0.1 to 2 | CC(CCc1nc2cc(C(=O)N[C@@H](C)c3ccc(Cl)cc3)ccc2nc1-c1ccc(Cl)cc1)CC(=O)O (stereo partly shown) [17D]

Same assay, conditions: [3H]PGD2 binding, values in text

Ki [nM] | SMILES
0.4 | O=C(O)CCCCc1nc2cc(C(=O)N[C@@H]3CCc4ccccc43)ccc2nc1-c1ccc(Cl)cc1 [16Ao, 3-(4-chlorophenyl)-7-[[(2,3-dihydro-1H-inden-1(R)-yl)amino]carbonyl]-2-quinoxalinepentanoic acid]
0.7 | C[C@@H](NC(=O)c1ccc2nc(-c3ccc(Cl)cc3)c(CCCCC(=O)O)nc2c1)c1ccc(F)cc1 [16S, 3-(4-chlorophenyl)-7-[[[1(R)-(4-fluorophenyl)ethyl]amino]carbonyl]-2-quinoxalinepentanoic acid]
2.7 | O=C(O)CCCCc1nc2cc(C(=O)N[C@H](c3ccc(Cl)cc3)C(F)(F)F)ccc2nc1-c1ccc(Cl)cc1 [16V, 3-(4-chlorophenyl)-7-[[[1(R)-(4-chlorophenyl)-2,2,2-trifluoroethyl]amino]carbonyl]-2-quinoxalinepentanoic acid]
0.4 | O=C(O)CCCCc1nc2cc(C(=O)N[C@@H](c3ccc(Cl)cc3)C(F)(F)F)ccc2nc1-c1ccc(Cl)cc1 [16W]
